From EPA's ToxValDB 9.5 (doi:10.2903/j.efsa.2020.5986) come the findings set out here.

One data set relates to Danio rerio. Conditions: subchronic; duration: 30 days; growth.
The next data set relates to Daphnia magna. The conditions noted are these: chronic/long-term; duration: 21 days; reproduction.
Another data set relates to Oncorhynchus mykiss. Conditions: acute; duration: 96 hours; mortality.
A further data set relates to Apis mellifera. The conditions noted are these: acute, mortality.
For a further data set, the system named is Hypoaspis aculeifer. The conditions noted are these: acute; duration: 14 days; mortality.
A further data set relates to Tagia sp. Conditions: chronic/long-term; mortality.
The test system of the next data set is Rattus norvegicus. The conditions noted are these: acute; oral; mortality.
For a further data set, the system named is Colinus virginianus. The conditions noted are these: oral.

As for `CC(C)=CCC/C(C)=C/CC/C(C)=C/CO` [Farnesol], the NOEC with Danio rerio was at least 0.138 mg/L; in the data set with Daphnia magna, 3 mg/L; with Hypoaspis aculeifer it was 1000 mg/kg; in the data set with Tagia sp., at least 1000 mg/kg; with Colinus virginianus (reproduction developmental, diet), at least 111 mg/kg-day. For the same molecule, the figures for the LC50 in the data set on Oncorhynchus mykiss and in the data set on Rattus norvegicus were above 0.134 mg/L and above 2000 mg/kg-day, respectively. Besides, the LD50 in the data set on Apis mellifera (dermal) is above 100 µg/piece; in the data set on Apis mellifera (oral, unspecified), above 100 µg/piece; in the data set with Colinus virginianus (acute, mortality), above 2000 mg/kg-day.
